Earlier results on two compounds are cited in patent US11576871B2 (The Regents of the University of California, priority 2016, dated 2023).

Data set [1] deals with intracellular cystine in circulating white blood cells.
The conditions of data set [2]: children with cystinosis.

As to `NCCS` [cysteamine, Cysteamine], the “time to observed decrease in leukocyte cystine” value in data set [1] (delivery of cysteamine to the small intestine (WO 2007/089670)) is recorded as “within an hour”. Also, the “depletion of intracellular cystine” value in data set [1] (taken regularly, measured in circulating white blood cells) was “up to 90%”. Regarding `COc1ccc2c(c1)c(CC(=O)O)c(C)n2C(=O)c1ccc(Cl)cc1` [indomethacin], the “reduction of urine volume (and liquid consumption)” value in data set [2] was “about 30%”.
